US20260216093A1, “COMPOSITIONS AND METHODS FOR ENHANCED DRUG LOADING INTO LIPID-BASED CARRIERS” (UNIVERSITY OF NOTRE DAME DU LAC, priority 2023, published 2026)

Experiments:
[1] = tested on: Human hepatocellular carcinoma cells (HepG2); assay: CCK-8 cell proliferation assay with Exo-Dox; format: cell-based; conditions: 24 h
Description: (§1) Cell viability was assessed using a Cell Counting Kit-8 (CCK-8 assay, Enzo). In brief, 3T3 and HepG2 cells were seeded into a 96-well flat culture plate (Corning). After being cultured overnight, the cells were washed with FBS-free EMEM and incubated with a specific concentration of sEV and exosomal relative in FBS-free medium at 37° C. for 12, 24, 36, or 48 h. The cells were then washed three times with sterilized PBS and incubated with fresh medium containing 10% FBS overnight. The cells were then washed with PBS, and FBS-free EMEM […] before adding assay reagent. After incubation for 20 min at 37° C., the cell proliferation and cytotoxicity were measured by absorbance at 460 nm. The background was measured by 3T3 and HepG2 cells cultured in FBS-free EMEM only.
(§2) The ability of Exo-Dox to inhibit cancer cell proliferation in vitro was then analyzed. Human hepatocellular carcinoma cells (HepG2) and cervical carcinoma cells (Hela) were treated with Exo-Dox for 24 h, while cells without treatment, treated with control sEVs, and D-Cys-GQDs mixed with free Dox are negative controls. Cell viability of all samples was measured by CCK-8 assay. […] Dox-loaded sEVs by sonication method were not included in the cell viability tests due to low yield of loaded sEVs that was caused by the damage of physical structure of sEVs by sonication (FIG. 17A-B).

[2] = tested on: cervical carcinoma cells (Hela); assay: CCK-8 cell proliferation assay with Exo-Dox; format: cell-based, human; conditions: 24 h
Description: as §1, §2

[3] = biological target: tau fibrils (Homo sapiens, UniProt P10636); assay: Tau biosensor seeding (propagation) assay; format: cell-based; conditions: inhibitors added 1 h after tau fibrils; D-GQDs 0.1-0.8 μM, Qal:D-GQDs 10:1, 6:1, 3:1; bare Qal 1.5 μM to 9 μM
Description: To study the effect of Qal-D-GQD-Exo on tau propagation, a tau biosensor seeding assay (FIG. 35) was used to investigate whether the Qal-D-GQD-Exo could block the cellular transmission of exogeneous mature tau fibrils using three different ratios of Qal to D-GQDs (10:1, 6:1, and 3:1) and concentrations of D-GQDs at 0.8, 0.4, 0.2, and 0.1 μM.

tau fibrils, sequence (P10636 whole entry): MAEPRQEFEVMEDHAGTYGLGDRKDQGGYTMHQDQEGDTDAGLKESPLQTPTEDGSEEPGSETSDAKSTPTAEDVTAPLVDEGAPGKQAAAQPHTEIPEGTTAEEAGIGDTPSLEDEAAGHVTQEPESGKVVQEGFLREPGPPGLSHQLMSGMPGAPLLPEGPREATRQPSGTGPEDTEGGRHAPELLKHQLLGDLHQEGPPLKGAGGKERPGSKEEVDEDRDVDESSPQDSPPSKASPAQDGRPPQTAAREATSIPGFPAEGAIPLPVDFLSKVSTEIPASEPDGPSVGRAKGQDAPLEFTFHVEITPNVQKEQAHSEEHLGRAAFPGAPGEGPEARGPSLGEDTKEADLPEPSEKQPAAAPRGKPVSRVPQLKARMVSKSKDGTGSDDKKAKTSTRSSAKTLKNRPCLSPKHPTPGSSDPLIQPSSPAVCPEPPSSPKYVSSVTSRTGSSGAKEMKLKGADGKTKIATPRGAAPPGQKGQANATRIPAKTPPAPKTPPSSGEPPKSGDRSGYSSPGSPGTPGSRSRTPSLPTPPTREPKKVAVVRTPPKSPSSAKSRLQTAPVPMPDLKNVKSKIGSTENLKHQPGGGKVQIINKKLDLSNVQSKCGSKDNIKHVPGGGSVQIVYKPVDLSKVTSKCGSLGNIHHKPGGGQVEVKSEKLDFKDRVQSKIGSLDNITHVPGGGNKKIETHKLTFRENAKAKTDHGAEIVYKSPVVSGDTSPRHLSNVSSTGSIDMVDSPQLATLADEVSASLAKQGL

| Molecule | inhibition of cell proliferation [1] | inhibition of cell proliferation [2] | inhibition of intracellular tau aggregation, at most [3] |
| --- | --- | --- | --- |
| COc1cccc2c1C(=O)c1c(O)c3c(c(O)c1C2=O)C[C@@](O)(C(=O)CO)C[C@@H]3O[C@H]1C[C@H](N)[C@H](O)[C@H](C)O1 [free Dox, Doxorubicin] | 28.3±5.2% | 27.7±5.0% |  |
| Qal: tau-specific N-amino peptide (NAP), amino acid sequence CGTHKLTFRASHAVQIVYKGC (SEQ ID NO: 2) |  |  | did not show any inhibitory efficiency |
